Test results: US20090156509A1, “Tri-peptide Inhibitors of Serine Elastases” (Accuthera, Inc., priority 2007, published 2009)
Converted amounts (≈) assume the structure as drawn.

What was measured:
[1] = biological target: T1, HNE (human neutrophil elastase) (Homo sapiens, UniProt P08246); assay: HNE enzyme inhibition, kinetic Ki determination; assay type: biochemical; conditions: for Ki: substrate MeO-Suc-Ala-Ala-Pro-Val-pNA, pH 7.6, read-out: Ki (NE)
T1 construct: Enzymes PR3 and HNE (HLE) were purchased from Athens Research and Technology (Athens, Ga.) or Elastin Products (Owensville, Mich.); purchased Athens Research and Technology (Athens, Ga.) or Elastin Products (Owensville, Mich.)
T1 sequence (P08246 30-267): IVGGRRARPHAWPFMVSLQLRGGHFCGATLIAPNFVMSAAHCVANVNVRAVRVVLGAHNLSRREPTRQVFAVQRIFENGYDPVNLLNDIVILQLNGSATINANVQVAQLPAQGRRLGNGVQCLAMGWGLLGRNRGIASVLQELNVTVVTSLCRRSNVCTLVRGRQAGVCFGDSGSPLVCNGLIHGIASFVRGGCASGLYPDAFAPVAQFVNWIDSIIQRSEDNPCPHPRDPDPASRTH
Protocol: (§1) The assays for measurement of PR3 and HNE enzyme and inhibitory activity were performed generally as described by Coeschott et al., Proc. Nat. Acad. Sci. USA, 96: 6261-6266, (1999). Kinetic characterization was performed generally by the techniques of Wieczorek et al., Archives of Biochem. and BioPhys., 367: 193-201 (1999). Enzymes PR3 and HNE (HLE) were purchased from Athens Research and Technology (Athens, Ga.) or Elastin Products (Owensville, Mich.).
(§2) The substrate used for HNE was MeO-Suc-Ala-Ala-Pro-Val-pNA, in 0.05 M sodium phosphate/0.1 M NaCl, pH 7.6, containing 0.001% Triton X-100 and 5% DMSO. The substrate used for PR3 was Boc-Ala-Pro-Nva-4-chloro-SBzl in 0.05 M potassium phosphate/0.1 M KCl, pH 7.6, containing 0.001% Triton X-100, and 10% DMSO. The cleavage of the thiobenzyl ester was detected with 250 μM […] (5′,5′-dithiobis-2-nitrobenzoic acid).
The concentration of active site of HNE was determined by titration with N-benzyloxycarbonyl-Ala-Ala-Pro-azaAla p-nitrophenyl ester or an alternative method. For the alternative method, the concentration of the active center of a HNE solution was first titrated with the above p-nitrophenyl ester, this HNE solution was then used to measure the active center concentration of an eglin c solution. Aliquots of the eglin c solution were stored at −70° C. and employed as a second standard to assay the activity of any newly prepared HNE solutions. No change in the activity of eglin c could be detected over a 3 year time interval as long as the solution was stored at −70° C. An important factor which influences the HNE assay is the method of dissolution of lyophilized enyme: if HNE is obtained in the lyophilized state, the protease solution should be dissolved, aliquoted, and stored at −20° C. for at least 48 hours prior to assay, so that the dried protein can be completely hydrated. Freshly dissolved enzyme which has not been stored for 48 hours may have proteolytic activity which is 10%-20% less that of stored enzyme.
Consequently, it is not always easy to achieve conditions in which the initial concentration of free inhibitor, [I]o, is much larger than the initial concentration of free enzyme, [E]o, i.e. the condition of [I]o≧10 [E]o is not easily fulfilled. […]
can only be employed when the condition of [I]o≧10 [E]o is fulfilled. In those cases in which the condition of [I]o≧10 [E]o is not met, the experimental data is analyzed using the Henderson equations according to the classic procedure (Henderson, P. J. F. Biochem. J. 127: 321, 1972) or with equations derived for slow-binding inhibition (Ying, Q-L. et al, Biochemistry 33: 5445, 1994). […]

[2] = biological target: T2, PR3 (human neutrophil proteinase 3) (Homo sapiens, UniProt P24158); assay: PR3 enzyme inhibition, Ki determination; assay type: biochemical; conditions: substrate Boc-Ala-Pro-Nva-4-chloro-SBzl, pH 7.6
T2 construct: Enzymes PR3 and HNE (HLE) were purchased from Athens Research and Technology (Athens, Ga.) or Elastin Products (Owensville, Mich.); purchased Athens Research and Technology (Athens, Ga.) or Elastin Products (Owensville, Mich.)
T2 sequence (P24158 28-248): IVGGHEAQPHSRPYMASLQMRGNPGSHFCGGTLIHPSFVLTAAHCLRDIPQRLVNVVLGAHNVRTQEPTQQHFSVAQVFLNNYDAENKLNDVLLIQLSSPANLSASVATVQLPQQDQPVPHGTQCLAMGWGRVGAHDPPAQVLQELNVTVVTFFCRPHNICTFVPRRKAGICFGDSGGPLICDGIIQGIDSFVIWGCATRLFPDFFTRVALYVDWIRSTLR
Protocol: as §1, §2

[3] = Plasma stability in dog plasma; assay type: in vitro ADME; conditions: 37° C., 2 hours, read-out: Plasma Stability (t1/2)
Protocol: Plasma stability of test compounds was accessed by incubating with dog plasma (37° C. at 1 μM) for 2 hours. Aliquots were taken at pre-defined times and the disappearance of parent compound was monitored by LC-MS.

[4] = Protein binding in dog plasma by equilibrium dialysis; assay type: in vitro ADME; conditions: 10 μM, 6 hours at 37° C.
Protocol: Protein binding of test compounds in dog plasma was assessed by performing equilibrium dialysis with plasma containing test compound (10 μM) against 0.1 M PBS (pH 7.4). Following incubation (6 hours at 37° C.), the parent compound was measured in both plasma and buffer compartments by LC-MS and the percentage of compound bound to plasma proteins determined. […] Generally it is believed that only the unbound drug is available for pharmacological action.

[5] = Solubility in 0.1 M PBS by LC-MS; assay type: physicochemical; conditions: aqueous buffer, kinetic from dmso stock; 0.1 M PBS pH 7.4, 2% DMSO, 2 hours at 37° C.
Protocol: Solubility of test compounds was measured by adding small volumes of DMSO stock solutions (final concentration 2% DMSO) to 0.1 M PBS (pH 7.4) and incubating for 2 hours at 37° C. Subsequently, the samples were filtered and the concentration of test compounds was determined by LC-MS.

| Ki [1] [nM] | Ki [2] [nM] | half-life at 1 μM [3] [h] | Plasma Protein Binding (% free) [4] [% free] | Protein binding in dog plasma (% bound) [4] [% bound] | solubility at 2 h [5] [µM] | Ki for HLE (in words) ([1]; tight binding inhibitor of HLE) | SMILES |
| --- | --- | --- | --- | --- | --- | --- | --- |
| 0.22 | 8.4 | > 1.67 | 8.0 | 92 | 69 (≈ 45.5 µg/mL) | – | CC(C)[C@H](NC(=O)[C@@H]1CCCN1C(=O)[C@@H](NC(=O)CCCCCNC(=O)c1ccccn1)C(C)C)C(=O)c1nnc(-c2ccccc2)o1 [AI-158] |
| – | – | > 1.67 | 19.0 | 81 | 164 (≈ 95.7 µg/mL) | – | CC(C)[C@H](NC(=O)CCCCCNC(=O)c1ccccn1)C(=O)N1CCC[C@H]1C(=O)N[C@H](C(=O)C(F)(F)F)C(C)C [AI-167] |
| 0.2 | 3.9 | > 1.67 | 17.0 | 83 | 179 (≈ 115 µg/mL) | – | CC(C)[C@H](NC(=O)[C@@H]1CCCN1C(=O)[C@@H](NC(=O)CCCCCNC(=O)c1ccccn1)C(C)C)C(=O)c1nnc(C(C)(C)C)o1 [AI-168] |
| 0.24 | 24 | > 1.67 | 1.0 | – | < 10 | subnanomolar range | Cc1cccc(Cc2nnc(C(=O)[C@@H](NC(=O)[C@@H]3CCCN3C(=O)[C@@H](NC(=O)OCc3ccccc3)C(C)C)C(C)C)o2)c1 [CE-2072, reference compound] |
